# Laboratory results: US4145296A, “Weather-durable aqueous fire retardant stabilized against gelation” (priority 1977, dated 1979)
# Where two headings read alike, the source gives them in different places.
# Tests used:
# [1] = for Viscosity in centipoises at 1 Hr. / Viscosity in centipoises at 4 Hrs. / Viscosity in centipoises at 6 Min. / Viscosity in centipoises at 0 / Viscosity in centipoises at 21-28 Hrs.: additive at 3 percent weight; for gel inhibition / stabilization of aqueous dispersion (in words): conclusion from Tables II and III
# [2] = pH of the aqueous dispersion; type: physicochemical; conditions: for Initial Dispersion pH: additive at 3 percent weight in Control dispersion; for pH (MEA At 3%): 3% MEA
# [3] = thermodynamic; cited from earlier work
SMILES,Viscosity in centipoises at 1 Hr. ([1]; 1 Hr.) [centipoises],Viscosity in centipoises at 4 Hrs. ([1]; 4 Hrs.) [centipoises],Viscosity in centipoises at 6 Min. ([1]; 6 Min.) [centipoises],Viscosity in centipoises at 0 ([1]; time 0) [centipoises],Initial Dispersion pH [2],also measured
C1CCNCC1 [Piperidine],725,800,650,600,9.9,
"NCCO [Monoethanolamine, 2-aminoethanol]",,,,,,"Viscosity with Monoethanolamine (MEA) ([1]; 1.5% MEA in Control dispersion, time 0): 610 Centipoises; Viscosity with Monoethanolamine (MEA) ([1]; 1.5% MEA, 1 Hr.): 760 Centipoises; Viscosity with Monoethanolamine (MEA) ([1]; 1.5% MEA, 4 Hrs.): 1125 Centipoises; Viscosity with Monoethanolamine (MEA) ([1]; 1.5% MEA, 6 Min.): 625 Centipoises; Viscosity with Monoethanolamine (MEA) ([1]; 2% MEA in Control dispersion, time 0): 650 Centipoises; Viscosity with Monoethanolamine (MEA) ([1]; 2% MEA, 1 Hr.): 750 Centipoises; Viscosity with Monoethanolamine (MEA) ([1]; 2% MEA, 4 Hrs.): 925 Centipoises; Viscosity with Monoethanolamine (MEA) ([1]; 2% MEA, 6 Min.): 700 Centipoises; Viscosity with Monoethanolamine (MEA) ([1]; 3% MEA in Control dispersion, time 0): 625 Centipoises; Viscosity with Monoethanolamine (MEA) ([1]; 3% MEA, 1 Hr.): 700 Centipoises; Viscosity with Monoethanolamine (MEA) ([1]; 3% MEA, 4 Hrs.): 750 Centipoises; Viscosity with Monoethanolamine (MEA) ([1]; 3% MEA, 6 Min.): 700 Centipoises; Viscosity with Monoethanolamine (MEA) ([1]; 3% MEA, 21-28 Hrs.): 1150 Centipoises; pH (MEA At 3%) ([2]; 1 Hr.): 9.1; pH (MEA At 3%) ([2]; 4 Hrs.): 9.1; pH (MEA At 3%) ([2]; 6 Min.): 9.2; pH (MEA At 3%) ([2]; 21-28 Hrs.): 8.7; pH (MEA At 3%) ([2]; time 0): 9.3"
[K+].[OH-] [Potassium hydroxide],,,,,,Viscosity in centipoises at 21-28 Hrs. ([1]; 21-28 Hrs.): 1450 centipoises
OCCNCCO [Diethanolamine],750,875,,600,9.0,
CC(O)CN(CC(C)O)CC(C)O (stereo not shown) [Triisopropanolamine],,,,,,pKa at 25° C. [3]: 7.86
CN(C)C=O [Dimethyl formamide],900,3100,500,475,,
N [Ammonium hydroxide],550,575,400,400,,Viscosity in centipoises at 21-28 Hrs. ([1]; 21-28 Hrs.): 750 centipoises; gel inhibition / stabilization of aqueous dispersion (in words) [1]: good stabilization results
CCN1CCOCC1 [N-Ethylmorpholine],,,,,,pKa at 25° C. [3]: 7.67
N.N.O=C(O)O [Ammonium carbonate],,,,,,"Viscosity in centipoises at 1 Hr. ([1]; 1 Hr., listed as Ammonium carbonate (20%)): 850 centipoises; Viscosity in centipoises at 1 Hr. ([1]; 1 Hr., listed as Ammonium carbonate (100%)): 525 centipoises; Viscosity in centipoises at 4 Hrs. ([1]; 4 Hrs., listed as Ammonium carbonate (20%)): 1900 centipoises; Viscosity in centipoises at 4 Hrs. ([1]; 4 Hrs., listed as Ammonium carbonate (100%)): 800 centipoises; Viscosity in centipoises at 6 Min. ([1]; 6 Min., listed as Ammonium carbonate (20%)): 575 centipoises; Viscosity in centipoises at 6 Min. ([1]; 6 Min., listed as Ammonium carbonate (100%)): 350 centipoises; Viscosity in centipoises at 21-28 Hrs. ([1]; 21-28 Hrs.): gel; Viscosity in centipoises at 0 ([1]; time 0, listed as Ammonium carbonate (20%)): 475 centipoises; Viscosity in centipoises at 0 ([1]; time 0, listed as Ammonium carbonate (100%)): 300 centipoises; longer term storage of the aqueous dispersion (in words) ([1]; longer term storage): evidence of polymerization and gas evolution"
"NCCN [Ethylenediamine, diaminoethane]",525,500,500,450,,gel inhibition / stabilization of aqueous dispersion (in words) [1]: superior gel inhibitors; pKa at 25° C. [3]: greater than 8.0

# Further lines, with some results ahead:
Viscosity in centipoises at 1 Hr. ([1]; 1 Hr.) [centipoises],Viscosity in centipoises at 4 Hrs. ([1]; 4 Hrs.) [centipoises],Viscosity in centipoises at 6 Min. ([1]; 6 Min.) [centipoises],Viscosity in centipoises at 0 ([1]; time 0) [centipoises],Initial Dispersion pH [2],SMILES,also measured
800,1800,650,600,6.6,NC(N)=O [Urea],
950,2000,550,500,6.7,C1N2CN3CN1CN(C2)C3 [Hexamethylene tetramine],
975,2100,600,500,7.0,O.O.O.O.O.O.O.O=P([O-])([O-])O.[Na+].[Na+] [Disodium phosphate . 7H2 O],
725,800,525,550,8.7,"C1COCCN1 [Morpholine, tetrahydro-p-oxazine]",Viscosity in centipoises at 21-28 Hrs. ([1]; 21-28 Hrs.): 2700 centipoises
900,1300,600,500,,O=P(O)(O)OP(=O)(O)O [Tetrasodium pyrophosphate . 10H2 O],
875,1900,550,425,7.2,O=P([O-])([O-])O.[Na+].[Na+] [Disodium phosphate anhydrous],
850,1500,600,450,7.7,O.O.O.O.O.O.O.O.O.O.O.O.O=P([O-])([O-])[O-].[Na+].[Na+].[Na+] [Trisodium phosphate . 12H2 O],
